Results reported in patent publication US10351546B2, “Pyridin-3-yl acetic acid derivatives as inhibitors of human immunodeficiency virus replication” (priority 2015, dated 2019).

system: NL-RLuc virus; test: Inhibition of HIV replication (NL-RLuc luciferase reporter virus in MT-2 cells); type: cell-based; details: Human immunodeficiency virus 1, MT2, 120 h, read-out: Activity
From the text: Inhibition of HIV replication: A recombinant NL-RLuc proviral clone was constructed in which a section of the nef gene form NL4-3 was replaced with the Renilla Luciferase gene. This virus is fully infectious and can undergo multiple cycles of replication in cell culture. In addition, the luciferous reporter provides a simple and easy method for quantitating the extent of virus growth and consequently, the antiviral activity of test compounds. The plasmid pNLRLuc contains the proviral NL-Rluc DNA cloned into pUC18 at the PvuII site. The NL-RLuc virus was prepared by transfection of 293T cells with the plasmid pNLRLuc. Transfections were performed using the LipofectAMINE PLUS kit form Invitrogen (Carlsbad, Calif.) according to the manufacturer and the virus generated was titered in MT-2 cells. For susceptibility analyses, the titrated virus was used to infect MT-2 cells in the presence of compound, and after 5 days of incubation, cells were processed and quantitated for virus growth by the amount of expressed luciferase. Assay media was RPMI 1640 supplemented with 10% heat inactivated fetal bovine serum (FBS), 100 units/ml penicillin G/100 units/ml streptomycin, 10 mM HEPES buffer pH 7.55 and 2 mM L-glutamine. The results form at least 2 experiments were used to calculate the EC50 values. Luciferase was quantitated using the Dual Luciferase kit form Promega (Madison, Wis.). Susceptibility of viruses to compounds was determined by incubation in the presence of serial dilutions of the compound. The 50% effective concentration (EC50) was calculated by using the exponential form of the median effect equation where (Fa)=1/[1+(ED50/drug conc.)^m](Johnson V A, Byington R T. Infectivity Assay. In Techniques in HIV Research. ed. Aldovini A, Walker B D. 71-76. New York: Stockton Press. 1990). Activity equal to A refers to a compound having an EC50≤100 nM, while B and C denote compounds having an EC50 between 100 nM and 1 uM (B) or >1 uM (C).

Question: With Cc1nc(CNCC2CCOCC2)c(-c2ccc(OCCc3ccc(F)cc3)cc2)c(N2CCC(C)(C)CC2)c1[C@H](OC(C)(C)C)C(=O)O [Example 67, (S)-2-(tert-Butoxy)-2-(4-(4,4-dimethylpiperidin-1-yl)-5-(4-(4-fluorophenethoxy)phenyl)-2-methyl-6-((((tetrahydro-2H-pyran-4-yl)methyl)amino)methyl)pyridin-3-yl)acetic acid] as the molecule, how does the EC50 read?
Answer: < 0.1 µM

Question: Which EC50 does the source give for Cc1cc(F)ccc1CN1CCc2cc(-c3c(CN(C)C)nc(C)c([C@H](OC(C)(C)C)C(=O)O)c3N3CCC(C)(C)CC3)ccc2C1 [Example 115, (S)-2-(tert-Butoxy)-2-(6-((dimethylamino)methyl)-4-(4,4-dimethylpiperidin-1-yl)-5-(2-(4-fluoro-2-methylbenzyl)-1,2,3,4-tetrahydroisoquinolin-6-yl)-2-methylpyridin-3-yl)acetic acid] here?
Answer: < 0.1 µM

Question: For CC[N+](CC)(CC)Cc1nc(C)c([C@H](OC(C)(C)C)C(=O)O)c(N2CCC(C)(C)CC2)c1-c1ccc2c(c1)CCN(Cc1ccc(F)cc1C)C2 [Example 125, (S)—N-((5-(tert-Butoxy(carboxy)methyl)-4-(4,4-dimethylpiperidin-1-yl)-3-(2-(4-fluoro-2-methylbenzyl)-1,2,3,4-tetrahydroisoquinolin-6-yl)-6-methylpyridin-2-yl)methyl)-N,N-diethylethanaminium], which EC50 is on record?
Answer: < 0.1 µM

Question: With Cc1nc(COCC2CNC2)c(-c2ccc(OCCc3ccc(F)cc3)cc2)c(N2CCC(C)(C)CC2)c1[C@H](OC(C)(C)C)C(=O)O [Example 22, (S)-2-(6-((Azetidin-3-ylmethoxy)methyl)-4-(4,4-dimethylpiperidin-1-yl)-5-(4-(4-fluorophenethoxy)phenyl)-2-methylpyridin-3-yl)-2-(tert-butoxy)acetic acid] as the molecule, how does the EC50 read?
Answer: < 0.1 µM

Question: For Cc1nc(COCC2CCOCC2)c(-c2ccc(OCCc3ccc(F)cc3)cc2)c(N2CCC(C)(C)CC2)c1[C@H](OC(C)(C)C)C(=O)O [Example 19, (S)-2-(tert-Butoxy)-2-(4-(4,4-dimethylpiperidin-1-yl)-5-(4-(4-fluorophenethoxy)phenyl)-2-methyl-6-(((tetrahydro-2H-pyran-4-yl)methoxy)methyl)pyridin-3-yl)acetic acid], which EC50 is on record?
Answer: < 0.1 µM

Question: For Cc1cc(F)ccc1CN1CCc2cc(-c3c(COC4CCOCC4)nc(C)c([C@H](OC(C)(C)C)C(=O)O)c3N3CCC(C)(C)CC3)ccc2C1 [Example 155, (S)-2-(tert-Butoxy)-2-(4-(4,4-dimethylpiperidin-1-yl)-5-(2-(4-fluoro-2-methylbenzyl)-1,2,3,4-tetrahydroisoquinolin-6-yl)-2-methyl-6-(((tetrahydro-2H-pyran-4-yl)oxy)methyl)pyridin-3-yl)acetic acid], which EC50 is on record?
Answer: < 0.1 µM

Question: For Cc1cc(F)ccc1CN1CCc2cc(-c3c(Cn4ncnc4C)nc(C)c([C@H](OC(C)(C)C)C(=O)O)c3N3CCC(C)(C)CC3)ccc2C1 [Example 145, (S)-2-(tert-butoxy)-2-(4-(4,4-dimethylpiperidin-1-yl)-5-(2-(4-fluoro-2-methylbenzyl)-1,2,3,4-tetrahydroisoquinolin-6-yl)-2-methyl-6-((5-methyl-1H-1,2,4-triazol-1-yl)methyl)pyridin-3-yl)acetic acid], which EC50 is on record?
Answer: < 0.1 µM

Question: COCCNCc1nc(C)c([C@H](OC(C)(C)C)C(=O)O)c(N2CCC(C)(C)CC2)c1-c1ccc(OCCc2ccc(F)cc2)cc1 [Example 68, (S)-2-(tert-Butoxy)-2-(4-(4,4-dimethylpiperidin-1-yl)-5-(4-(4-fluorophenethoxy)phenyl)-6-(((2-methoxyethyl)amino)methyl)-2-methylpyridin-3-yl)acetic acid] was tested. Which EC50 did it give?
Answer: < 0.1 µM

Question: How did the EC50 turn out when Cc1nc(CN2CCC3(CCC3)CC2)c(-c2ccc(OCCc3ccc(F)cc3)cc2)c(N2CCC(C)(C)CC2)c1[C@H](OC(C)(C)C)C(=O)O [Example 82, (S)-2-(6-(7-Azaspiro[3.5]nonan-7-ylmethyl)-4-(4,4-dimethylpiperidin-1-yl)-5-(4-(4-fluorophenethoxy)phenyl)-2-methylpyridin-3-yl)-2-(tert-butoxy)acetic acid] was run?
Answer: < 0.1 µM

Question: Which EC50 does the source give for CCN(CC)CCOCc1nc(C)c([C@H](OC(C)(C)C)C(=O)O)c(N2CCC(C)(C)CC2)c1-c1ccc(OCCc2ccc(F)cc2)cc1 [Example 23, (S)-2-(tert-Butoxy)-2-(6-((2-(diethylamino)ethoxy)methyl)-4-(4,4-dimethylpiperidin-1-yl)-5-(4-(4-fluorophenethoxy)phenyl)-2-methylpyridin-3-yl)acetic acid] here?
Answer: < 0.1 µM

Question: Cc1cccc(Cl)c1CN1CCc2cc(-c3c(CN4CCCCC4)nc(C)c([C@H](OC(C)(C)C)C(=O)O)c3N3CCC(C)(C)CC3)ccc2C1 [Example 177, (S)-2-(tert-Butoxy)-2-(5-(2-(2-chloro-6-methylbenzyl)-1,2,3,4-tetrahydroisoquinolin-6-yl)-4-(4,4-dimethylpiperidin-1-yl)-2-methyl-6-(piperidin-1-ylmethyl)pyridin-3-yl)acetic acid] was tested. Which EC50 did it give?
Answer: < 0.1 µM

Question: How did the EC50 turn out when Cc1cccc(Cl)c1CN1CCc2cc(-c3c(C#N)nc(C)c([C@H](OC(C)(C)C)C(=O)O)c3N3CCC(C)(C)CC3)ccc2C1 [Example 166, (S)-2-(tert-butoxy)-2-(5-(2-(2-chloro-6-methylbenzyl)-1,2,3,4-tetrahydroisoquinolin-6-yl)-6-cyano-4-(4,4-dimethylpiperidin-1-yl)-2-methylpyridin-3-yl)acetic acid] was run?
Answer: < 0.1 µM

Question: Cc1cc(F)ccc1CN1CCc2cc(-c3c(CN4CCCCC4)nc(C)c([C@H](OC(C)(C)C)C(=O)O)c3N3CCC(C)(C)CC3)ccc2C1 [Example 119, (S)-2-(tert-Butoxy)-2-(4-(4,4-dimethylpiperidin-1-yl)-5-(2-(4-fluoro-2-methylbenzyl)-1,2,3,4-tetrahydroisoquinolin-6-yl)-2-methyl-6-(piperidin-1-ylmethyl)pyridin-3-yl)acetic acid] was tested. Which EC50 did it give?
Answer: < 0.1 µM

Question: With Cc1nc(N2CCCCC2)c(-c2ccc(OCCc3ccc(F)cc3)cc2)c(N2CCC(C)(C)CC2)c1[C@H](OC(C)(C)C)C(=O)O [Example 53, (S)-2-(tert-Butoxy)-2-(4-(4,4-dimethylpiperidin-1-yl)-5-(4-(4-fluorophenethoxy)phenyl)-2-methyl-6-(piperidin-1-yl)pyridin-3-yl)acetic acid] as the molecule, how does the EC50 read?
Answer: < 0.1 µM

Question: With Cc1nc(COCC2CCC2)c(-c2ccc(OCCc3ccc(F)cc3)cc2)c(N2CCC(C)(C)CC2)c1[C@H](OC(C)(C)C)C(=O)O [Example 29, (S)-2-(tert-Butoxy)-2-(6-((cyclobutylmethoxy)methyl)-4-(4,4-dimethylpiperidin-1-yl)-5-(4-(4-fluorophenethoxy)phenyl)-2-methylpyridin-3-yl)acetic acid] as the molecule, how does the EC50 read?
Answer: < 0.1 µM

Question: Which EC50 does the source give for Cc1nc(CN2CCC(F)CC2)c(-c2ccc(OCCc3ccc(F)cc3)cc2)c(N2CCC(C)(C)CC2)c1[C@H](OC(C)(C)C)C(=O)O [Example 90, (S)-2-(tert-Butoxy)-2-(4-(4,4-dimethylpiperidin-1-yl)-5-(4-(4-fluorophenethoxy)phenyl)-6-((4-fluoropiperidin-1-yl)methyl)-2-methylpyridin-3-yl)acetic acid] here?
Answer: < 0.1 µM

Question: Which EC50 does the source give for Cc1nc(CN2CCCc3ccccc32)c(-c2ccc(OCCc3ccc(F)cc3)cc2)c(N2CCC(C)(C)CC2)c1[C@H](OC(C)(C)C)C(=O)O [Example 89, (S)-2-(tert-Butoxy)-2-(6-((3,4-dihydroquinolin-1(2H)-yl)methyl)-4-(4,4-dimethylpiperidin-1-yl)-5-(4-(4-fluorophenethoxy)phenyl)-2-methylpyridin-3-yl)acetic acid] here?
Answer: < 0.1 µM

Question: CCOCCOCCOCc1nc(C)c(-c2ccc(OCCc3ccc(F)cc3)cc2)c(N2CCC(C)(C)CC2)c1[C@H](OC(C)(C)C)C(=O)O [Example 110, (S)-2-(tert-Butoxy)-2-(4-(4,4-dimethylpiperidin-1-yl)-2-((2-(2-ethoxyethoxy)ethoxy)methyl)-5-(4-(4-fluorophenethoxy)phenyl)-6-methylpyridin-3-yl)acetic acid] was tested. Which EC50 did it give?
Answer: < 0.1 µM

Question: Which EC50 does the source give for Cc1nnc(C(=O)NCc2nc(C)c([C@H](OC(C)(C)C)C(=O)O)c(N3CCC(C)(C)CC3)c2-c2ccc3c(c2)CCN(Cc2ccc(F)cc2C)C3)o1 [Example 141, (S)-2-(tert-Butoxy)-2-(4-(4,4-dimethylpiperidin-1-yl)-5-(2-(4-fluoro-2-methylbenzyl)-1,2,3,4-tetrahydroisoquinolin-6-yl)-2-methyl-6-((5-methyl-1,3,4-oxadiazole-2-carboxamido)methyl)pyridin-3-yl)acetic acid] here?
Answer: < 0.1 µM

Question: Cc1cc(F)ccc1CN1CCc2cc(-c3c(CN4CC[C@@H](F)C4)nc(C)c([C@H](OC(C)(C)C)C(=O)O)c3N3CCC(C)(C)CC3)ccc2C1 [Example 133, (S)-2-(tert-Butoxy)-2-(4-(4,4-dimethylpiperidin-1-yl)-5-(2-(4-fluoro-2-methylbenzyl)-1,2,3,4-tetrahydroisoquinolin-6-yl)-6-(((R)-3-fluoropyrrolidin-1-yl)methyl)-2-methylpyridin-3-yl)acetic acid] was tested. Which EC50 did it give?
Answer: < 0.1 µM

same assay, conditions: Human immunodeficiency virus 1, MT2, 120 h, read-out: EC50 μM

Question: CC[N+](CC)(CC)Cc1nc(C)c([C@H](OC(C)(C)C)C(=O)O)c(N2CCC(C)(C)CC2)c1-c1ccc2c(c1)CCN(Cc1ccc(F)cc1C)C2 [Example 125, (S)—N-((5-(tert-Butoxy(carboxy)methyl)-4-(4,4-dimethylpiperidin-1-yl)-3-(2-(4-fluoro-2-methylbenzyl)-1,2,3,4-tetrahydroisoquinolin-6-yl)-6-methylpyridin-2-yl)methyl)-N,N-diethylethanaminium] was tested. Which EC50 did it give?
Answer: 0.016 µM

Question: Which EC50 does the source give for Cc1cc(F)ccc1CN1CCc2cc(-c3c(COC4CCOCC4)nc(C)c([C@H](OC(C)(C)C)C(=O)O)c3N3CCC(C)(C)CC3)ccc2C1 [Example 155, (S)-2-(tert-Butoxy)-2-(4-(4,4-dimethylpiperidin-1-yl)-5-(2-(4-fluoro-2-methylbenzyl)-1,2,3,4-tetrahydroisoquinolin-6-yl)-2-methyl-6-(((tetrahydro-2H-pyran-4-yl)oxy)methyl)pyridin-3-yl)acetic acid] here?
Answer: 0.001 µM
